Patent EP4417607A1, “HETEROCYCLIC COMPOUND AS SOS1 INHIBITOR AND USES THEREOF” (Nanjing Zaiming Pharmaceutical Co., Ltd., priority 2021, dated 2023)

Assays:
[1] = test system: p-ERK pathway in H358 cells; test: p-ERK pathway inhibition in H358 cells (Advanced phospho-ERK (Thr202/Tyr204) cellular kit, HTRF); assay type: cell-based; settings: Homo sapiens, NCI-H358, 1 h compound incubation
In short: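 Serum-starved H358 cells (50000/well, overnight) treated with compound for 1 h at 37 °C, then lysed; phospho-ERK (Thr202/Tyr204) read by HTRF (665/620 nm ratio). Cell-free wells set 100% inhibition, untreated cells 0%; IC50 fitted from 8 concentrations by four-parameter curve.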

[2] = test system: H358 cells; test: H358 cell proliferation inhibition (CellTiter-Glo luminescent cell viability assay); assay type: cell-based; settings: Homo sapiens, NCI-H358, 168 h, 7 days
Method: The effect of the compounds of the present invention on H358 cell proliferation was assessed by CellTiter-Glo luminescent cell viability assay kit method.
H358 cells (ATCC, CRL-5807) were cultured in RPMI1640 (Hyclone, SH30256.01) complete medium containing 10% FBS (Gibco, 10100147) and 100 U/mL penicillin-streptomycin mixed solution (Gibco, 15140163). When the cells grew to 80-90%, the cells were digested, pipetted, and seeded in a 96-well plate (Corning, 4515) at 3000 cells/well (180 µL RPMI1640 complete medium), and then the 96-well plate was incubated overnight in an incubator at 37 °C with 5% CO2.
After incubation overnight, 20 µL of a diluted test compound was added to each well using a multi-channel pipette, and the 96-well plate was placed in an incubator at 37 °C with 5% CO2 for further culture. After 7 days, 100 µL of the supernatant was pipetted and discarded. 50 µL of CellTiter-Glo® 3D Cell Viability Assay liquid was added to each well. The plate was shaken at room temperature at 450 rpm for 30 min. After the cells were completely lysed, "Luminescence" on the microplate reader was selected for plate reading. In this experiment, the cell-free group (replaced with 1640 medium) was used as the 100% inhibition group, and the compound-free group in which the cell was added was used as the 0% inhibition group.
The inhibition percentage of H358 cell proliferation by the compounds of the present invention could be calculated by the following formula: [formula]
IC50 values of the compounds were calculated from 8 concentration points using XLfit (ID Business Solutions Ltd., UK) software by the following formula: Y = Bottom + (Top−Bottom)/(1+10^(∧)((logIC50−X)×slopefactor)) [formula]
Y is the inhibition percentage, X is the logarithmic value of the concentration of the test compound, Bottom is the minimum inhibition percentage, Top is the maximum inhibition percentage, and slope factor is the slope coefficient of the curve.

SMILES	IC50 [1]	IC50 [2]
Cc1nc(N[C@H](C)c2cccc(C(F)F)c2F)c2cn(C3(CF)CC3)c(=O)c(N3C[C@@H](C)O[C@@H](C)C3)c2n1 [Example 41, 4-(((R)-1-(3-(difluoromethyl)-2-fluorophenyl)ethyl)amino)-8-((2S,6R)-2,6-dimethylmorpholino)-6-(1-(fluoromethyl)cyclopropyl)-2-methylpyrido[4,3-d]pyrimidine-7(6H)-one]	117 nM	52 nM
Cc1nc(N[C@H](C)c2cccc(C(F)F)c2F)c2cn(C3(CF)CC3)c(=O)c(N3CCO[C@H](C)C3)c2n1 [Example 42, 4-(((R)-1-(3-(difluoromethyl)-2-fluorophenyl)ethyl)amino)-6-(1-(fluoromethyl)cyclopropyl)-2-methyl-8-((R)-2-methylmorpholine)pyrido[4,3-d]pyrimidine-7(6H)-one]	41.8 nM	50.5 nM
Cc1nc(N[C@H](C)c2cccc(C(F)F)c2F)c2cn(C3(CF)CC3)c(=O)c(N3CCO[C@@H](C)C3)c2n1 [Example 43, 4-(((R)-1-(3-(difluoromethyl)-2-fluorophenyl)ethyl)amino)-6-(1-(fluoromethyl)cyclopropyl)-2-methyl-8-((S)-2-methylmorpholine)pyrido[4,3-d]pyrimidine-7(6H)-one]	49.2 nM	50.8 nM
Cc1nc(N[C@H](C)c2cccc(S(F)(F)(F)(F)F)c2)c2cn(C3(CF)CC3)c(=O)c(N3CCOCC3)c2n1 [Example 46, (R)-6-(1-(fluoromethyl)cyclopropyl)-2-methyl-8-morpholino-4-((1-(3-(pentafluoro-λ^6-sulfanyl)phenyl)ethyl)amino)pyrido[4,3-d]pyrimidine-7(6H)-one]	112 nM	74.8 nM
Cc1nc(N[C@H](C)c2cccc(C#N)c2C)c2cn(C3(CF)CC3)c(=O)c(N3CCOCC3)c2n1 [Example 47]	37.5 nM	23.7 nM
[2H]C([2H])([2H])Oc1c(=O)n(N2CCOCC2)cc2c(N[C@H](C)c3cccc(C(F)F)c3F)nc(C)nc12 [Example 48, (R)-4-((1-(3-(difluoromethyl)-2-fluorophenyl)ethyl)amino)-8-(methoxy-d3)-2-methyl-6-morpholinepyrido[4,3-d]pyrimidine-7(6H)-one]	114 nM	47.2 nM
CC(=O)N1CCN(c2c(=O)n(C3(CF)CC3)cc3c(N[C@H](C)c4cccc(C(F)F)c4F)nc(C)nc23)CC1 [Example 49]	62.6 nM	10.1 nM
Cc1nc(N[C@H](C)c2cccc(C(F)(F)F)c2C)c2cn(C3(CF)CC3)c(=O)c(N3CCOC[C@@H]3C)c2n1 [Example 56, 6-(1-(fluoromethyl)cyclopropyl)-2-methyl-4-(((R)-1-(2-methyl-3-(trifluoromethyl)phenyl)ethyl)amino)-8-((S)-3-methylmorpholine)pyrido[4,3-d]pyrimidine-7(6H)-one]	42.4 nM	17.4 nM
CC[C@H]1COCCN1c1c(=O)n(C2(CF)CC2)cc2c(N[C@H](C)c3cccc(C(F)F)c3F)nc(C)nc12 [Example 58, 4-(((R)-1-(3-(difluoromethyl)-2-fluorophenyl)ethyl)amino)-8-((S)-3-ethylmorpholino)-6-(1-(fluoromethyl)cyclopropyl)-2-methylpyrido[4,3-d]pyrimidine-7(6H)-one]	112 nM	57.9 nM
Cc1nc(N[C@H](C)c2cccc(C(F)F)c2F)c2cn(C3(CF)CC3)c(=O)c(N3CCC(C)(O)C3)c2n1 (stereo partly drawn) [Example 62, 4-(((R)-1-(3-(difluoromethyl)-2-fluorophenyl)ethyl)amino)-6-(1-(fluoromethyl)cyclopropyl)-8-(3-hydroxy-3-methylpyrrolidin-1-yl)-2-methylpyrido[4,3-d]pyrimidine-7(6H)-one]	133 nM	71.6 nM

The next lines start with the values.

IC50 [1]	IC50 [2]	SMILES
100 nM	11.7 nM	Cc1nc(N[C@H](C)c2cccc(C(F)F)c2F)c2cn(C3(CF)CC3)c(=O)c(N3CCN(C)CC3)c2n1 [Example 38, (R)-4-((1-(3-(difluoromethyl)-2-fluorophenyl)ethyl)amino)-6-(1-(fluoromethyl)cyclopropyl)-2-methyl-8-(4-methylpiperazin-1-yl)pyrido[4,3-d]pyrimidine-7(6H)-one]
38.7 nM	32.7 nM	Cc1nc(N[C@H](C)c2cccc(C(F)F)c2F)c2cn(C3(CF)CC3)c(=O)c(N3CCOC[C@H]3C)c2n1 [Example 39, 4-(((R)-1-(3-(difluoromethyl)-2-fluorophenyl)ethyl)amino)-6-(1-(fluoromethyl)cyclopropyl)-2-methyl-8-((R)-3-methylmorpholine)pyrido[4,3-d]pyrimidine-7(6H)-one]
18.9 nM	31.4 nM	Cc1nc(N[C@H](C)c2cccc(C(F)F)c2F)c2cn(C3(CF)CC3)c(=O)c(N3CCC(C)(O)CC3)c2n1 [Example 45, (R)-4-((1-(3-(difluoromethyl)-2-fluorophenyl)ethyl)amino)-6-(1-(fluoromethyl)cyclopropyl)-8-(4-hydroxy-4-methylpiperidin-1-yl)-2-methylpyrido[4,3-d]pyrimidine-7(6H)-one]
41.4 nM	26.5 nM	Cc1nc(N[C@H](C)c2cccc(C(F)F)c2F)c2cn(C3(CF)CC3)c(=O)c(N3CCOCC3(C)C)c2n1 [Example 52, (R)-4-((1-(3-(difluoromethyl)-2-fluorophenyl)ethyl)amino)-8-(3,3-dimethylmorpholine) -6-(1-(fluoromethyl)cyclopropyl)-2-methylpyrido[4,3-d]pyrimidine-7(6H)-one]
67.5 nM	73.1 nM	Cc1nc(N[C@H](C)c2cccc(C(F)F)c2F)c2cn(C3(CF)CC3)c(=O)c(N3CCOC[C@@H]3C(C)C)c2n1 [Example 57, 4-(((R)-1-(3-(difluoromethyl)-2-fluorophenyl)ethyl)amino)-6-(1-(fluoromethyl)cyclopropyl)-8-((S)-3-isopropylmorpholino)-2-methylpyrido[4,3-d]pyrimidine-7(6H)-one]
16.4 nM	22.8 nM	Cc1nc(N[C@H](C)c2cccc(C(F)F)c2F)c2cn(C3(CF)CC3)c(=O)c(NC3COC3)c2n1 [Example 61, (R)-4-((1-(3-(difluoromethyl)-2-fluorophenyl)ethyl)amino)-6-(1-(fluoromethyl)cyclopropyl)-2-methyl-8-(oxetan-3-ylamino)pyrido[4,3-d]pyrimidine-7(6H)-one]
27 nM	66.4 nM	Cc1nc(N[C@H](C)c2cccc(C(F)F)c2F)c2cn(C3(CF)CC3)c(=O)c(N(C)c3cnn(C)c3)c2n1 [Example 65, (R)-4-((1-(3-(difluoromethyl)-2-fluorophenyl)ethyl)amino)-6-(1-(fluoromethyl)cyclopropyl)-2-methyl-8-(methyl(1-methyl-1H-pyrazol-4-yl)amino)pyrido[4,3-d]pyrimidine-7(6H)-one]
76.8 nM	79 nM	Cc1nc(N[C@H](C)c2cccc(C(F)F)c2F)c2cn(C3(CF)CC3)c(=O)c(S(C)(=O)=O)c2n1 [Example 66, (R)-4-((1-(3-(difluoromethyl)-2-fluorophenyl)ethyl)amino)-6-(1-(fluoromethyl)cyclopropyl)-2-methyl-8-(methylsulfonyl)pyrido[4,3-d]pyrimidine-7(6H)-one]
